Source: patent EP4129284B1, “SERTACONAZOL FOR PROVIDING A SPORISTATIC AND/OR SPORICIDAL EFFECT” (Dr. Pfleger Arzneimittel GmbH, priority 2021, dated 2023)

Test system: full skin models
Assay type: cell-based, human
Details: for cell viability: human
Protocol: Additionally, the influence on the cell viability and the release of lactate dehydrogenase (LDH) was examined over the incubation time. Disruptions of the cell membranes can be measured by the release of the cytosolic enzyme LDH and be evaluated as a marker for cellular necrosis. As the biocompatibility of the material is determined by further cellular and molecular factors, the analysis of the cellular interleukin release allows the conclusion on e.g. pro-inflammatory effects of the substances, which would not be possible to be detected by sole cytotoxicity. Such interleukins are interleukins 1α, 6 or 8, which are involved in coordinating the cellular proliferation, cell migration and possible inflammatory processes. Such a method is described in, for example, Wiegand C, Hipler UC. Evaluation of biocompatibility and cytotoxicity using keratinocyte and fibroblast cultures. Skin Pharmacol Physiol 2009; 22:74-82; Wiegand C, Winter D, Hipler UC. Molecular-weight-dependent toxic effects of chitosans on the human keratinocyte cell line HaCaT. Skin Pharmacol Physiol. 2010;23(3):164-70.
The spore suspensions and the solutions of sertaconazol, ciclopiroxolamin and terbinafin were prepared as in Example 1, wherein the respective test concentrations were obtained by diluting these solutions in ultrapure water (WFI; Fresenius Kabi) instead of SGB (Merck). Full skin models were produced as previously described [Reddersen K, Wiegand C, Elsner P, Hipler UC. Three-dimensional human skin model infected with Staphylococcus aureus as a tool for evaluation of bioactivity and biocompatibility of antiseptics. Int J Antimicrob Agents. 2019; 54(3):283-291; Wiegand C, Fink S, Beier O, Horn K, Pfuch A, Schimanski A, Grünler B, Hipler UC, Elsner P. Dose- and Time-Dependent Cellular Effects of Cold Atmospheric Pressure Plasma Evaluated in 3D Skin Models. Skin Pharmacol Physiol. 2016;29(5):257-265].Particularly, normal human dermal fibroblasts (NHDF; Lot 1060702.1, Promocell) and normal human epidermal keratinocytes (NHEK; Lot 9100102, Promocell) were used. Fibroblasts were cultivated in Dulbecco's modified eagle medium (DMEM; Lot MC09049P, Amimed), with 2% foetal calf serum (Lot P160509; PAN), 5 ng/mL hFGF (Lot 0329586; novoprotein) and 5 µg/ml Insulin (Lot H07443P, AMIMED) at 37°C and a 5% CO2 atmosphere. Keratinocytes were cultivated in keratinocyte medium (KBM, Lot 446M063, Promocell) at 37°C and a 5% CO2 atmosphere. The cultivation was performed over 7 days in 75 cm^2 cell culture flasks (Greiner Bio-One). The cells were subsequently detached with Trypsin-EDTA (Lot 2091326; Gibco) and dissolved in the respective medium. For producing the dermis equivalent, fibroblasts were cultivated in 12-well inserts (Greiner bio-one) with DMEM (Lot MC09049P, Amimed) + 10% foetal calf serum (Lot P160509, PAN) + 1% Gentamycin (Lot 2027100, Gibco) + 150 µg/ml ascorbic acid (Lot BCBS1081V, Sigma) for 3 weeks at […] and 5 % CO2. The medium was changed all 2-3 days. Before seeding the keratinocytes for producing the […], the medium surrounding the insert was completely removed and the dermis upper layer was coated with fibronectin (50 µg/mL; Lot 435P078, Promocell). After 30 min of incubation of the dermis equivalent with fibronectin, the seeding of the keratinocytes was performed with 2 × 10^5 cells / insert in KBM (Lot 446M063, Promocell) + 5% FKS (Lot P160509, PAN) + 1% Gentamycin (Lot 2027100, Gibco). Subsequently, the skin models were incubated for 45 min in the incubator before the models were flooded with KBM + 5% FKS + 1% Gentamycin. The skin models were cultivated for 7 days by submersion in the medium with decreasing foetal calf serum concentration (5 %, 2 %, 0 %). The medium was changed all 2-3 days. After the cultivation by submersion, the skin models were further cultivated for 12 days at the air-medium interface (airlift cultivation). […]

Row | Compound | effect on the cell viability of the full skin models | secretion of LDH | cell viability [%]
1 | Cc1cc(C2CCCCC2)n(O)c(=O)c1 [Ciclopiroxolamin, ciclopiroxolamin] | did not have a negative effect | no significant secretion | ≥ 70
2 | Clc1ccc(C(Cn2ccnc2)OCc2csc3c(Cl)cccc23)c(Cl)c1 (stereo not drawn) [Sertaconazol, sertaconazol] | did not have a negative effect | no significant secretion | ≥ 70
3 | CN(C/C=C/C#CC(C)(C)C)Cc1cccc2ccccc12 [Terbinafin, terbinafin] | did not have a negative effect | no significant secretion | ≥ 70
